Data reported in patent US11690824B2, “Antibacterial compounds” (THE GENERAL HOSPITAL CORPORATION, priority 2018, dated 2023).
≈ marks a conversion by molar mass, not a printed value. Like-named read-outs stand apart in the source and are kept apart here. One block for each molecule: values may come before it.

How the values were obtained:
S. aureus (MRSA) MW2 = assay: Minimal inhibitory concentration (MIC) assay, micro-dilution; type: cell-based; settings: for antibiotic activity / potency relative to nTZDpa: growing S. aureus cells
Text: (§1) Bacterial strains, growth conditions, and persister isolation. Methicillin-resistant S. aureus strains, MW2 BAA-1707, ATCC 33591, and JE2, methicillin-susceptible S. aureus strains, NCTC 8325, Newman, and ATCC 29213, vancomycin-resistant S. aureus strain, VRS1, Enterococcus faecium E007, vancomycin-resistant E. faecium strains, C68,^7 WB312, and WC196, Klebsiella pneumoniae WGLW2 (BEI Resources, Manassas, Va., USA), Acinetobacter baumannii ATCC 17978, Pseudomonas aeruginosa PA14, and Enterobacter aerogenes ATCC 13048 were used to test antimicrobial activity (Table 1). S. aureus strains were grown in tryptic soy broth (TSB) (BD, Franklin Lakes, N.J., USA), and E. faecium was grown in brain-heart infusion (BHI) broth (BD, Franklin Lakes, N.J., USA) at 37° C. K. pneumoniae, A. baumannii, P. aeruginosa, and E. aerogenes were grown in Luria Bertani (LB) broth (BD, Franklin Lakes, N.J., USA) at 37° C.
(§2) Minimal inhibitory concentration (MIC) assay. The MICS of antibiotics were determined by the standard micro-dilution method recommended by the Clinical and Laboratory Standards Institute. MIC assays were conducted in biological triplicate.

human erythrocytes = assay: Human blood hemolysis; type: cell-based; settings: human erythrocytes
Method: Human blood hemolysis. Hemolytic activity was evaluated as described in a previous study. Briefly, 100 μL of 4% human erythrocytes (Rockland Immunochemicals, Limerick, Pa., USA) was added to 100 μL of 2-fold serial dilutions of compounds in PBS, 0.2% DMSO (negative control), or 2% Triton-X 100 (positive control) in a 96-well plate. The 96-well plate was incubated at 37° C. for 1 h and then centrifuged at 500× g for 5 min. 50 μL of the supernatant was transferred to a fresh 96-well plate, and absorbance of supernatants was measured at 540 nm. Percent hemolysis was calculated using the following equation: (A540 nm of compound treated sample−A540 nm of 0.1% DMSO treated sample)/(A540 nm of 1% Triton X-100 treated sample−A540 nm of 0.1% DMSO treated sample)×100. HC50 (concentration of a compound causing 50% hemolysis) was determined using SigmaPlot 10.0 (Systat Software Inc., San Jose, Calif., USA).

[1] = test system: MRSA MW2 persisters (stationary phase); assay: Persister killing assay; type: cell-based, S. aureus; settings: 64 μg/mL
Method: Persister killing assay. […] Persister cells of MRSA MW2 were prepared by growing cultures overnight to stationary phase at 37° C. at 200 rpm and washing 3 times with PBS. 1 mL of ˜2×10^8 CFU/mL MRSA persisters was added to 1 mL of PBS containing 2-fold of the desired concentration of antibiotics in a 96-well assay block (Corning Costar 3960). The assay block was incubated at 37° C., with shaking at 200 rpm. At specific times, […] were removed, washed once with PBS, serially diluted and spot-plated on TSA plates. Colonies were counted to enumerate the number of live cells after overnight incubation at 37° C. These experiments were conducted in biological triplicate.

MRSA MW2 = assay: Antibiotic synergy test (checkerboard); type: cell-based, S. aureus; settings: nTZDpa in combination with the named antibiotic, synergy if FICI ≤ 0.5
Method: Antibiotic synergy test. Antibiotic synergism was evaluated by the checkerboard method. Briefly, 2-fold serial dilutions of nTZDpa were combined with 2-fold serial dilutions of each other antibiotic, which created an 8×8 matrix in a 96-well microtiter plate. The fractional inhibitory concentration index (FICI) was calculated as follows: FICI=MIC of compound A in combination/MIC of compound A alone+MIC of compound B in combination/MIC of compound B alone. The interaction between two compounds was defined, as follows: synergy if FICI≤0.5, no interaction if 0.5<FICI≤4, and antagonism if FICI>4.

S. aureus ATCC 29213 = assay: MIC assay; type: cell-based; settings: S. aureus ATCC 29213
Text: as §1, §2

S. aureus ATCC 33591 = assay: MIC assay; type: cell-based; settings: S. aureus ATCC 33591
Text: as §1, §2

S. aureus JE2 = assay: MIC assay; type: cell-based; settings: S. aureus JE2
Text: as §1, §2

S. aureus NCTC 8325 = assay: MIC assay; type: cell-based; settings: S. aureus NCTC 8325
Text: as §1, §2

S. aureus Newman = assay: MIC assay; type: cell-based; settings: S. aureus Newman
Text: as §1, §2

S. aureus VRS1 = assay: MIC assay; type: cell-based; settings: S. aureus VRS1
Text: as §1, §2

E. faecium C68 = assay: MIC assay; type: cell-based, Enterococcus faecium; settings: E. faecium C68
Text: as §1, §2

E. faecium WB312 = assay: MIC assay; type: cell-based, Enterococcus faecium; settings: E. faecium WB312
Text: as §1, §2

E. faecium WC196 = assay: MIC assay; type: cell-based, Enterococcus faecium; settings: E. faecium WC196
Text: as §1, §2

E.faecium E007 = assay: MIC assay; type: cell-based, Enterococcus faecium; settings: E.faecium E007
Text: as §1, §2

K. pneumoniae WGLW2 = assay: MIC assay; type: cell-based, Klebsiella pneumoniae; settings: K. pneumoniae WGLW2
Text: as §1, §2

A. baumannii ATCC 17978 = assay: MIC assay; type: cell-based, Acinetobacter baumannii; settings: A. baumannii ATCC 17978
Text: as §1, §2

P. aeruginosa PA14 = assay: MIC assay; type: cell-based, Pseudomonas aeruginosa; settings: P. aeruginosa PA14
Text: as §1, §2

E. aerogenes ATCC 13048 = assay: MIC assay; type: cell-based, Enterobacter aerogenes; settings: E. aerogenes ATCC 13048
Text: as §1, §2

[2] = Staphylococcus aureus, Example 5, MRSA MW2, read-out: MIC
[3] = Staphylococcus aureus, Table 3, growing MRSA, read-out: MIC
[4] = Staphylococcus aureus, MRSA, PPARγ agonists, read-out: MICS against S. aureus MW2

MIC (S. aureus (MRSA) MW2; [3]): 4 µg/mL (≈ 9.7 µM)
SMILES: O=C(O)c1c(Oc2ccccc2)c2cc(Cl)ccc2n1Cc1ccc(Cl)cc1 [Compound 6, 5-chloro-1-(4-chlorobenzyl)-3-phenoxy-1H-indole-2-carboxylic acid]
antibiotic activity / potency relative to nTZDpa (S. aureus (MRSA) MW2): equipotent with nTZDpa
decrease in viability of persisters [1]: 3 log
HC50: median hemolytic concentration (human erythrocytes): >64 µg/mL

MIC (S. aureus (MRSA) MW2; [3]): 2 µg/mL (≈ 4.48 µM)
SMILES: O=C(O)c1c(Oc2ccccc2)c2cc(Cl)ccc2n1Cc1ccc(Cl)c(Cl)c1 [Compound 10, 5-chloro-1-(3,4-dichlorobenzyl)-3-phenoxy-1H-indole-2-carboxylic acid]
HC50: median hemolytic concentration (human erythrocytes): >64 µg/mL

MIC (S. aureus (MRSA) MW2; [3]): 2 µg/mL (≈ 4.48 µM)
SMILES: O=C(O)c1c(Oc2ccc(Cl)cc2)c2cc(Cl)ccc2n1Cc1ccc(Cl)cc1 [Compound 11, 5-chloro-1-(4-chlorobenzyl)-3-(4-chlorophenoxy)-1H-indole-2-carboxylic acid]
HC50: median hemolytic concentration (human erythrocytes): >64 µg/mL

MIC (S. aureus (MRSA) MW2; [3]): 1 µg/mL (≈ 2.08 µM)
SMILES: O=C(O)c1c(Oc2ccc(Cl)c(Cl)c2)c2cc(Cl)ccc2n1Cc1ccc(Cl)cc1 [Compound 12, 5-chloro-1-(4-chlorobenzyl)-3-(3,4-dichlorophenoxy)-1H-indole-2-carboxylic acid]
HC50: median hemolytic concentration (human erythrocytes): 38 µg/mL

MIC (S. aureus (MRSA) MW2; [3]): 2 µg/mL (≈ 4.07 µM)
SMILES: O=C(O)c1c(Oc2ccc(Br)cc2)c2cc(Cl)ccc2n1Cc1ccc(Cl)cc1 [Compound 13, 3-(4-bromophenoxy)-5-chloro-1-(4-chlorobenzyl)-1H-indole-2-carboxylic acid]
HC50: median hemolytic concentration (human erythrocytes): >64 µg/mL

MIC (S. aureus (MRSA) MW2; [3]): 1 µg/mL (≈ 1.86 µM)
SMILES: O=C(O)c1c(Oc2ccc(I)cc2)c2cc(Cl)ccc2n1Cc1ccc(Cl)cc1 [Compound 14, 5-chloro-1-(4-chlorobenzyl)-3-(4-iodophenoxy)-1H-indole-2-carboxylic acid]
HC50: median hemolytic concentration (human erythrocytes): >64 µg/mL

MIC (S. aureus (MRSA) MW2; [2]): 16 µg/mL (≈ 40.6 µM)
SMILES: O=C(O)c1c(Sc2ccccc2)c2cc(Cl)ccc2n1Cc1ccccc1 [S4 (analog 2), 1-benzyl-5-chloro-3-(phenylthio)-1H-indole-2-carboxylic acid]

MIC (S. aureus (MRSA) MW2; [4]): > 64 µg/mL
SMILES: CCc1ccc(CCOc2ccc(CC3SC(=O)NC3=O)cc2)nc1 (stereo not drawn) [pioglitazone, reference compound]

MIC (S. aureus (MRSA) MW2; [4]): > 64 µg/mL
SMILES: CN(CCOc1ccc(CC2SC(=O)NC2=O)cc1)c1ccccn1 (stereo not drawn) [rosiglitazone, reference compound]

The next lines start with the molecule.

SMILES: O=C(O)c1c(Sc2ccccc2)c2cc(Cl)ccc2n1Cc1cccc(Cl)c1 [Analog 2b, 5-chloro-1-(3-chlorobenzyl)-3-(phenylthio)-1H-indole-2-carboxylic acid]
MIC (S. aureus (MRSA) MW2; Example 5, MRSA MW2): same MIC

SMILES: Cn1c(C(=O)O)c(Sc2ccccc2)c2cc(Cl)ccc21 [Analog 5, 5-chloro-1-methyl-3-(phenylthio)-1H-indole-2-carboxylic acid]
MIC (S. aureus (MRSA) MW2; [2]): 64 µg/mL (≈ 201 µM)

SMILES: O=C(O)c1c(Sc2ccc(Cl)cc2)c2cc(Cl)ccc2n1Cc1ccc(Cl)cc1 [Compound 4, 5-chloro-1-(4-chlorobenzyl)-3-((4-chlorophenyl)thio)-1H-indole-2-carboxylic acid]
MIC (S. aureus (MRSA) MW2; [3]): 2 µg/mL (≈ 4.32 µM)
HC50: median hemolytic concentration (human erythrocytes): 34 µg/mL

SMILES: CC(C)(C)c1ccc(Sc2c(C(=O)O)n(Cc3ccc(Cl)cc3)c3ccc(Cl)cc23)cc1 [Compound 5, 3-((4-(tert-butyl)phenyl)thio)-5-chloro-1-(4-chlorobenzyl)-1H-indole-2-carboxylic acid]
MIC (S. aureus (MRSA) MW2; [3]): 2 µg/mL (≈ 4.13 µM)
HC50: median hemolytic concentration (human erythrocytes): 26 µg/mL

SMILES: O=C(O)c1c(Cc2ccccc2)c2cc(Cl)ccc2n1Cc1ccc(Cl)cc1 [Compound S12, 3-benzyl-5-chloro-1-(4-chlorobenzyl)-1H-indole-2-carboxylic acid]
antibiotic activity / potency relative to nTZDpa (S. aureus (MRSA) MW2): less potency

SMILES: OCc1c(Oc2ccccc2)c2cc(Cl)ccc2n1Cc1ccc(Cl)cc1 [Compound S13, (5-chloro-1-(4-chlorobenzyl)-3-phenoxy-1H-indol-2-yl)methanol]
antibiotic activity / potency relative to nTZDpa (S. aureus (MRSA) MW2): reduction of antibiotic activity

SMILES: NC[C@H]1O[C@H](O[C@H]2[C@H](O)[C@@H](O[C@H]3O[C@H](CO)[C@@H](O)[C@H](N)[C@H]3O)[C@H](N)C[C@@H]2N)[C@H](O)[C@@H](O)[C@@H]1O [Kanamycin, kanamysin]
FICI (fractional inhibitory concentration index) (MRSA MW2): 0.5

SMILES: Cc1onc(-c2ccccc2)c1C(=O)N[C@@H]1C(=O)N2[C@@H]1SC(C)(C)[C@@H]2C(=O)O [Oxa, oxacillin]
Minimum inhibitory concentration (S. aureus (MRSA) MW2; S. aureus (MRSA) MW2): 64 µg/mL (≈ 159 µM)
Minimum inhibitory concentration (S. aureus ATCC 29213): 0.5 µg/mL (≈ 1.25 µM)
Minimum inhibitory concentration (S. aureus ATCC 33591): >64 µg/mL
Minimum inhibitory concentration (S. aureus JE2): 64 µg/mL (≈ 159 µM)
Minimum inhibitory concentration (S. aureus NCTC 8325): 0.5 µg/mL (≈ 1.25 µM)
Minimum inhibitory concentration (S. aureus Newman): 0.5 µg/mL (≈ 1.25 µM)
Minimum inhibitory concentration (S. aureus VRS1): >64 µg/mL
Minimum inhibitory concentration (E. faecium C68): >64 µg/mL
Minimum inhibitory concentration (E. faecium WB312): >64 µg/mL
Minimum inhibitory concentration (E. faecium WC196): >64 µg/mL
Minimum inhibitory concentration (E.faecium E007): >64 µg/mL
Minimum inhibitory concentration (K. pneumoniae WGLW2): >64 µg/mL
Minimum inhibitory concentration (A. baumannii ATCC 17978): >64 µg/mL
Minimum inhibitory concentration (P. aeruginosa PA14): >64 µg/mL
Minimum inhibitory concentration (E. aerogenes ATCC 13048): >64 µg/mL

SMILES: CO[C@H]1/C=C/O[C@@]2(C)Oc3c(C)c(O)c4c(O)c(c(/C=N/N5CCN(C)CC5)c(O)c4c3C2=O)NC(=O)/C(C)=C\C=C\[C@H](C)[C@H](O)[C@@H](C)[C@@H](O)[C@@H](C)[C@H](OC(C)=O)[C@@H]1C [Rifampicin, rifampicin]
FICI (fractional inhibitory concentration index) (MRSA MW2): 1

SMILES: [H]/N=C(/N)N[C@H]1[C@H](O)[C@@H](O)[C@H](O[C@@H]2O[C@@H](C)[C@](O)(C=O)[C@H]2O[C@@H]2O[C@@H](CO)[C@H](O)[C@@H](O)[C@@H]2NC)[C@@H](N/C(N)=N\[H])[C@@H]1O [Streptomycin, streptomycin]
FICI (fractional inhibitory concentration index) (MRSA MW2): 0.37

SMILES: CN(C)[C@@H]1C(O)=C(C(N)=O)C(=O)[C@@]2(O)C(O)=C3C(=O)c4c(O)cccc4[C@@](C)(O)[C@H]3C[C@@H]12 [Tetracycline, tetracycline]
FICI (fractional inhibitory concentration index) (MRSA MW2): 1.125

SMILES: NC[C@H]1O[C@H](O[C@H]2[C@H](O)[C@@H](O[C@H]3O[C@H](CO)[C@@H](O)[C@H](N)[C@H]3O)[C@H](N)C[C@@H]2N)[C@H](N)C[C@@H]1O [Tobramycin, tobaramysin]
FICI (fractional inhibitory concentration index) (MRSA MW2): 0.31
